“Also recorded” adds a separate entry of the source.
Legend:
[1] = tested on: influenza virus strain PR8; assay type: cell-based
[2] = tested on: H7N7 A/Equine/London/1416/73 influenza virus strain; design: species or system mice; details: mouse, in vivo

Cc1ccccc1-n1c(Cn2cnc3c(N)ncnc32)nc2cccc(C)c2c1=O [IC87114]
reduction of viral mRNA production compared to untreated cells [1]: ~25 fold | influenza virus replication (specific RT-PCR) ([1]; 100 μM): inhibits influenza virus replication | survival after lethal challenge [2]: increased survival; also recorded: protects mice lethally challenged

Source: patent publication US20120039905A1, “The Role of p110 delta Signaling in Morbidity and Lung Pathology Induced by Influenza Virus Infection” (priority 2009, published 2012)
